Patent US20160324863A1, “TARGETED CANCER TREATMENT BY HSP90 INHIBITORS GANETESPIB AND NVP-AUY922” (SYNTA PHARMACEUTICALS CORP., priority 2014, published 2016)
Where two headings read alike, the source gives them in different places.

Columns and labels:
[1] = tested on: DHS1 bladder cancer cell line; test: CellTiter-Glo viability assay, DHS1; format: cell-based; settings: FGFR3 status WT, 72 hours, read-out: Ganetespib IC50
Experimental: (§1) Cellular viability was assessed using the CellTiter-Glo Luminescent Cell Viability Assay (Promega) according to manufacturer protocols. Bladder cancer cell lines were seeded into 96-well plates based on optimal growth rates determined empirically for each line. Twenty-four hours after plating, cells were dosed with graded concentrations of ganetespib for 72 hours. CellTiter-Glo was added (50% v/v) to the cells, and the plates incubated for 10 minutes prior to luminescent detection in a SpectraMax Plus 384 microplate reader (Molecular Devices). Data were normalized to percent of control and IC50 values used to determine the sensitivity of each line. For the comparative analyses with ganetespib and BGJ398, RT112 cells were treated with graded concentrations of each compound for 72 hours and cell viability measured as above. For the evaluation of apoptotic induction, caspase activity was assessed using the Caspase-Glo 3/7 assay (Promega) according to manufacturer protocols. Twenty-four hours after plating, RT112 cells were treated with graded concentrations of ganetespib for 24 hours. Caspase-Glo was added to cells (50% v/v) and the plates incubated for 1 hour prior to luminescent detection.

[2] = tested on: RT112 bladder cancer cell line; test: CellTiter-Glo viability assay, RT112; format: cell-based; settings: Homo sapiens
Experimental: as §1

[3] = tested on: 647-V bladder cancer cell line; test: CellTiter-Glo viability assay, 647-V; format: cell-based; settings: Homo sapiens, FGFR3 status WT, 72 hours, read-out: Ganetespib IC50
Experimental: as §1

[4] = tested on: LB831-BLC bladder cancer cell line; test: CellTiter-Glo viability assay, LB831-BLC; format: cell-based; settings: FGFR3 status WT, 72 hours, read-out: Ganetespib IC50
Experimental: as §1

[5] = tested on: KU-19-19 bladder cancer cell line; test: CellTiter-Glo viability assay, KU-19-19; format: cell-based; settings: Homo sapiens, FGFR3 status WT, 72 hours, read-out: Ganetespib IC50
Experimental: as §1

[6] = tested on: 5637 bladder cancer cell line; test: CellTiter-Glo viability assay, 5637; format: cell-based; settings: FGFR3 status WT, 72 hours, read-out: Ganetespib IC50
Experimental: as §1

[7] = tested on: TCCSUP bladder cancer cell line; test: CellTiter-Glo viability assay, TCCSUP; format: cell-based; settings: Homo sapiens, TCC-SUP, FGFR3 status WT, 72 hours, read-out: Ganetespib IC50
Experimental: as §1

[8] = tested on: SW780 bladder cancer cell line; test: CellTiter-Glo viability assay, SW780; format: cell-based; settings: Homo sapiens, FGFR3 status FGFR3-BAIAP2L1, 72 hours, read-out: Ganetespib IC50
Experimental: as §1

[9] = tested on: RT112 bladder cancer cells; test: Reverse phase protein array analysis in RT112 cells; format: cell-based; settings: 100 nM ganetespib, 24 hours
Experimental: RT112 cells were treated with dimethyl sulfoxide (DMSO, control) or 100 nM ganetespib for 24 hours. Lysates were prepared as recommended by MD Anderson Cancer Center (Houston, Tex.), arrayed on nitrocellulose-coated FAST slides (Whatman) and probed for a standard list of antibodies.

[10] = tested on: FGFR3-TAAC3 in RT112 cells; test: Western blotting of FGFR3-TAAC3 and signaling proteins in RT112 cells; format: cell-based; settings: 200 nM ganetespib
Experimental: Following in vitro assays, tumor cells were disrupted in lysis buffer on ice for 10 minutes. Lysates were clarified by centrifugation and equal amounts of proteins resolved by SDS-PAGE before transfer to nitrocellulose membranes (Bio-Rad). Membranes were blocked with StartingBlock T20 blocking buffer (Thermo Scientific) and immunoblotted with the indicated antibodies. Antibody-antigen complexes were visualized using an Odyssey system (LI-COR).

[11] = tested on: panel of eleven CRC-derived cell lines; test: Proliferation assay in CRC-derived cell lines (Celigo confluence); format: cell-based; settings: Homo sapiens, 96 h; range across eleven CRC cell lines; four days; read-out: Drug concentrations that inhibited the growth rate by 50%
Experimental: Eleven cell lines derived from human colorectal cancers (CRC) were cultured in RPMI (Invitrogen, Darmstadt, Germany) supplemented with 10% FCS (ThermoScientific, Waltham Mass., USA), 2 mM L-glutamine and Penicillin-Streptomycin (Invitrogen). Cell-line cross-contaminatino was excluded using short tandem repeat profiling. Specific knockdown of target genes was performed using pre-designed Silencer Select siRNAs (s231075 and s231076, designated s75 and s76) or control siRNAs (scrambled, all from Ambion, Hamburg, Germany) with a final concentration of 5 nM. Overexpression was performed with pCMV-SPORT6 vector constructs. For both up- and downregulation, Lipofectamine 2000 (Invitrogen) was applied in a forward transfection protocol. Ganetespib (Synta Pharma, Lexington Mass., USA) and 17AAG (Calbiochem, Darmstadt, Germany) were dissolved in DMSO (50 mM and 5 mM stocks, respectively) and diluted to the indicated concentrations with culture medium.
For cell proliferation analysis, cells were seeded at 10^5 cells/well in 12-well plates 24 hours prior to treatment. […] Over the course of the 4-day treatment, cell confluence was measured by brightfield microscopy using a Celigo Adherent Cell Cytometer (Brooks, Chelmsford Mass., USA). Confluence was calculated with the Celigo software program.

SW1463 cells = test: Cell viability assay, SW1463 colorectal cancer cells; settings: Homo sapiens, read-out: IC50 based on cell viability
Experimental: (§2) 24 hours after transfection, […] were seeded in triplicate in 96-well plates one day before treatment. Cells were treated with inhibitors and drugs for 48 hours and subjected to the CellTiterGlo Luminescent Cell Viability assay (Promega, Madison Wis., USA).

HT29 cells = test: Cell viability assay, HT29 colorectal cancer cells; settings: Homo sapiens, HT-29, read-out: IC50 based on cell viability
Experimental: as §2

[12] = weekly dosing regimen; cited from earlier work

In the case of `CC(C)c1cc(-c2n[nH]c(=O)n2-c2ccc3c(ccn3C)c2)c(O)cc1O` [ganetespib], the IC50 [1] is reported as 6 nM, the IC50 ([2]; RT-112, 72-hour combination viability assay, single inhibitor, read-out: approximate IC50 concentrations) is reported as ~9.6 nM and the IC50 ([2]; RT-112, FGFR3 status FGFR3-TACC3, 72 hours, read-out: Ganetespib IC50) is reported as 9 nM. It also gave an IC50 [3] of 27 nM, an IC50 [4] of 34 nM and an IC50 [5] of 36 nM. For the same compound, the IC50 [6] was 44 nM, the IC50 [7] was 142 nM and the IC50 [8] was 3450 nM. The “Fold Change AKT” value ([9]; AKT signaling) was −2.4 fold, the “Fold Change AKT (pS473)” value ([9]; AKT signaling) was −2.5 fold and the “Fold Change GSK3-A/B” value ([9]; AKT signaling) was −1.5 fold. The “Fold Change GSK3-A/B (pS2/S9)” value ([9]; AKT signaling) was −1.8 fold, the “Fold Change PDK1” value ([9]; AKT signaling) was −1.4 fold and the “Fold Change PDK1 (pS241)” value ([9]; AKT signaling) was −1.7 fold. For the same compound, the “Fold Change BIM” value ([9]; Apoptosis) was “+1.4 fold”, the “Fold Change Caspase 7 (cleaved D198)” value ([9]; Apoptosis) was “+2.5 fold” and the “Fold Change CDK1” value ([9]; Cell cycle regulation) was −1.4 fold. For the same compound, the “Fold Change Chk1” value ([9]; Cell cycle regulation) was −3.2 fold, the “Fold Change Cyclin B1” value ([9]; Cell cycle regulation) was −1.9 fold and the “Fold Change Rb (pS807/811)” value ([9]; Cell cycle regulation) was −4.6 fold. For the same compound, the “Fold Change p21” value ([9]; Cell cycle regulation) was “+1.4 fold”, the “Fold Change p27” value ([9]; Cell cycle regulation) was “+1.5 fold” and the “Fold Change C-RAF” value ([9]; MAPK pathway) was −1.8 fold. For the same compound, the “Fold Change MAPK (pT202/Y204)” value ([9]; MAPK pathway) was −1.5 fold, the “Fold Change MEK1 (pS217/S221)” value ([9]; MAPK pathway) was −1.4 fold and the “Fold Change P90RSK (pT359/S363)” value ([9]; MAPK pathway) was −1.4 fold. For the same compound, the “Fold Change Src (pY527)” value ([9]; MAPK pathway) was −1.4 fold, the “Fold Change EGFR” value ([9]; Receptor Tyrosine Kinases) was −1.5 fold and the “Fold Change EGFR (pY1068)” value ([9]; Receptor Tyrosine Kinases) was −1.9 fold. For the same compound, the “Fold Change HER2” value ([9]; Receptor Tyrosine Kinases) was −2.2 fold, the “Fold Change HER2 (pY1248)” value ([9]; Receptor Tyrosine Kinases) was −2.2 fold and the “Fold Change HER3” value ([9]; Receptor Tyrosine Kinases) was −1.6 fold. For the same compound, the “Fold Change MET (pY1235)” value ([9]; Receptor Tyrosine Kinases) was −2.7 fold, the “Fold Change HSP70/72” value ([9]; Stress response) was “+3.0 fold” and the “Fold Change HSP90 alpha” value ([9]; Stress response) was “+1.6 fold”. For the same compound, the “Fold Change NF-κB p65 (pS536)” value ([9]; Transcription factors) was −2.3 fold, the “Fold Change c-Myc” value ([9]; Transcription factors) was −2.5 fold and the “Fold Change 4E-BP1 (pS65)” value ([9]; mTOR pathway) was −2.5 fold. The “Fold Change P70S6K (pT389)” value ([9]; mTOR pathway) was −4.7 fold, the “Fold Change PRAS40 (pT246)” value ([9]; mTOR pathway) was −1.2 fold and the “Fold Change S6 (pS235/S236)” value ([9]; mTOR pathway) was −13.2 fold. For the same compound, the “Fold Change S6 (pS240/S244)” value ([9]; mTOR pathway) was −8.9 fold, the “Fold Change TSC1” value ([9]; mTOR pathway) was −1.3 fold and the “Fold Change Tuberin” value ([9]; mTOR pathway) was −2.2 fold. For the same compound, the “Fold Change mTOR (pS2448)” value ([9]; mTOR pathway) was −2.2 fold, the “time to destabilization of the FGFR3-TAAC3 fusion and alterations in downstream signaling” value [10] was ≤ 4 h and the IC50 [11] was 36 to 2500 nM. For the same compound, the IC50 (SW1463 cells) was 100 nM, the IC50 (HT29 cells) was 2000 nM and the maximally tolerated dose [12] was 150 mg/kg.
